Tests used:
[1] = test system: synaptic markers pCREB, pMAPK, GluR1 in hippocampal slice cultures; test: Activation of synaptic (LTP) markers in hippocampal slice cultures; type: cell-based, Wistar rats; details: hippocampal slices, 15 min treatment; for GluR1, percentage of control values: cell surface AMPA receptor 1; for pCREB, relative activation / pMAPK, relative activation: vs buffer-treated sister cultures
Description: Seven-day-old Wistar rats were decapitated using a guillotine. In less than 1 minute the skull was opened, the cerebral hemispheres were separated and transferred and both hippocampi were dissected and transferred into ice-cold buffer containing 137 mM NaCl, 5 mM KCl, 0.85 mM Na2HPO4, 1.5 mM CaCl2, 0.66 mM KH2PO4, 0.28 mM MgSO4, 1 mM MgCl2, 2.7 mM NaHCO3, 1 mM Kynurenic acid and 0.6% D-glucose.
Transverse hippocampal slices (400 μm) were prepared using a vibrating blade microtome (VT1200S; Leica Microsystems (Schweiz) AG, Heerbrugg, Switzerland) in the same buffer. Hippocampal slices were individually placed on membrane inserts (Millicell Culture Plate Inserts, 0.4 μm) and cultivated at 35° C., 5% CO2, 95% humidity in a medium containing a 1:1 mixture of BME and MEM (both from Invitrogen) containing 25% heat-inactivated horse serum, 1× GlutaMAX, 1× Penicillin/Streptomycin, 0.6% glucose and 1 mM Kynurenic acid (Stoppini, Buchs and Muller (1991), J. Neurosci. Methods, 37(2), 173-82).
After 48 h in culture, synaptic NMDA receptors were activated by addition of carnosol or rosmanol for 15 min in 140 mM NaCl, 5 mM KCl, 1.3 mM CaCl2, 25 mM HEPES (pH 7.3), 33 mM D-glucose and 0.02 mM bicuculline methiodide. […] An additional positive control comprised the addition of 200 μM glycine to sister cultures. After the treatments, sections were washed and fixed for immunohistochemistry. Markers of enhanced synaptic activity, normally associated with long-term potentiation, representing an ex vivo model of learning and memory were quantitated (see Table 6, below).
Treatment of hippocampal cultures with carnosol and rosmanol induced one or more biochemical markers typical for LTP (pCREB: activated form of the cAMP response element binding protein; pMAPK: activated form of the mitogen-activated protein kinase; GluR1: cell surface presence of AMPA receptor 1).

mouse = test: Marble burying test; type: in vivo; details: −30 min
Description: The method applied here follows that described by Broekkamp et al. (1986). Mice (n=15 per treatment group) were individually placed in transparent plastic cages (33×21×18 cm) with 5 cm of sawdust on the floor and 25 marbles (diameter 1 cm) grouped in the centre of the cage. A second, up-turned, cage served as a lid. The number of marbles covered by sawdust (by at least two-thirds) was counted at the end of the 30-min test period. Tests were performed by investigators blind to the drug treatment protocol.
Prior to testing, all test cages and marbles were “impregnated” by leaving 10 naive mice in each cage for 15 minutes.
Carnosol (3, 10 and 30 mg/kg) and rosmanol (10, 30 and 100 mg/kg) were administered i.p. 30 min before the test, and compared with a vehicle control group. Fluoxetine (32 mg/kg), administered under the same experimental conditions, was used as a reference substance.

[2] = target: T1, monoamine oxidase A (MAO-A) (Homo sapiens, UniProt P21397); test: Monoamine oxidase A inhibition (p-tyramine substrate, HRP/vanillic acid readout); type: biochemical; details: mean ± s.e.m., n = 3
T1 sequence (P21397 1-527): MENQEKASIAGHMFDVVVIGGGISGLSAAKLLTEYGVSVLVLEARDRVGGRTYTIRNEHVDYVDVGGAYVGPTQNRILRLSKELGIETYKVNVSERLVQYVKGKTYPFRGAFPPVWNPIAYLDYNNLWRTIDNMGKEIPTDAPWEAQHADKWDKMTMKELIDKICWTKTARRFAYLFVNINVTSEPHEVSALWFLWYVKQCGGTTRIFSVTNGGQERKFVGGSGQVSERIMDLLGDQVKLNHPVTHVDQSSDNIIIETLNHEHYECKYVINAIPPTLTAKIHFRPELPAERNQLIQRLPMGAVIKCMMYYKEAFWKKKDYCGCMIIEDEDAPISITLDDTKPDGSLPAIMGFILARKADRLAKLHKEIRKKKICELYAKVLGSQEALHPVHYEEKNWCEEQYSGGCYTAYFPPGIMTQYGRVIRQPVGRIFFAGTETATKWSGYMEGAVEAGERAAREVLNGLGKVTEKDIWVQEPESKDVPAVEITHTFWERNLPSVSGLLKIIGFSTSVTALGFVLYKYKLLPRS
Description: The organic amines p-tyramine or benzylamine were used as substrates for the monoamine oxidase A (MAO-A) and B (MAO-B) enzymes respectively. The H2O2 produced by this reaction was quantified by reaction with vanillic acid, catalysed by horse radish peroxidase (HRP).
The reactions were carried out at 37° C. in polystyrene microtitre plates. The MAO enzymes (final concentration 2 U/ml) were mixed with either p-tyramine (Sigma, final concentration 0.5 mM) or benzylamine (Sigma, final concentration 0.5 mM) as appropriate and the chromogenic solution (containing vanillic acid (Fluka), 4-aminoantipyrine (Fluka) and horse radish peroxidase (Sigma), final concentrations 0.25 mM, 0.125 mM and 1 U/ml, respectively) in 0.2 M potassium phosphate buffer, pH 7.6. After 40 min incubation, plates were analysed in a microtitre plate absorbance reader, e.g. Spectramax M5 (Molecular Devices Corporation), at 495 nm.
The effects of carnosol and rosmanol on the monoamine oxidase enzymes were determined by their inclusion in the assay at a range of concentrations between 0.03 and 100 μM for 10 minutes prior to and during the incubation with substrate. To determine the effect of the compounds on the HRP-catalysed portion of the reaction, the MAO enzyme was replaced by H2O2 (Molecular Probes, final concentration 50 μM). […]

Structure (SMILES) | GluR1, percentage of control values [1] | pCREB, relative activation [1] | pMAPK, relative activation [1] | Number of marbles buried (% change from control) (mouse; 3 mg/kg i.p.) | Number of marbles buried (% change from control) (mouse; 10 mg/kg i.p.) | Number of marbles buried (% change from control) (mouse; 30 mg/kg i.p.) | IC50 [2] | Number of marbles buried (% change from control) (mouse; 100 mg/kg i.p.)
CC(C)c1cc2c(c(O)c1O)[C@@]13CCCC(C)(C)[C@@H]1C[C@@H]2OC3=O [Carnosol, carnosol] | 608% | ± | ++ | −12% | −10% | −41% | 4 ± 0.1 µM | 
CC(C)c1cc2c(c(O)c1O)[C@@]13CCCC(C)(C)[C@@H]1[C@H](OC3=O)[C@H]2O [Rosmanol, rosmanol] | 320% | ± | + |  | −21% | −12% | 3.02 ± 0.48 µM | −55%

From patent US8227508B2, “Dietary and pharmaceutical compositions containing carnosol and/or rosmanol and their uses” (DSM IP Assets B.V., priority 2006, dated 2012)
